Where no end group is shown, it is not given here. The star is where a group is joined. Myristoyl = CCCCCCCCCCCCCC(=O)*
Columns and labels:
[1] = tested on: A549; test: Transwell migration assay, A549 cells; format: cell-based, human; conditions: 12 hr; for cell numbers in comparison to control, RNS peptide and MANS peptide: A549, 25 μm; for cell numbers in comparison to control, RNS peptide and MANS peptide / migrated cell numbers relative to control and to RNS peptide: FIG. 11; for migration index numbers relative to control and to RNS peptide / migrated cell numbers relative to control and to RNS peptide: A549, 50 μm
Experimental: The human adenocarcinoma-derived alveolar epithelial cell line A549 (an invasive cell line) was obtained from the American Type Culture Collection (ATCC) and was cultured in RPMI-1640 supplemented with 10% fetal bovine serum and 100 U/ml penicillin/streptomycin, in 75 cm^2 tissue culture flasks. The cells reached confluence by the third day of culture at 37° C. in an atmosphere of 95% air and 5% CO2 and were maintained by serial passage.
The test peptides (MANS, RNS, BIO-11006, BIO-11000, BIO-11002, BIO-91200, and BIO-10901) were dissolved in PBS at a pH of 7.0; slow vortex mixing for about two hours aided solubility.
Transwell plates (24-well, […]; Costar, Cambridge, Mass., USA) were used to conduct the migration assay. The lower chambers of the transwell plates were filled with 600 μl of basal medium containing 10% FBS. The cells (1×10^5) were suspended in 100 μl of basal medium containing 1% BSA and added to the upper chamber, and the plates incubated at 37° C. with 5% CO2 for 12 hr in PBS (control), or the indicated test peptides at 10, 25 or 50 μM. The cells on the upper surface of the filters were removed using cotton swabs. The cells that migrated to the lower surface of the filters were washed, fixed, and stained with hematoxylin and counted under the microscope. The percent change in migration is determined by counting the number of cells that migrated to the lower surface of the filters. At least four separate microscopic fields are counted per membrane, with a total of three replicate experiments at each concentration. The statistics software “Prizm” was used for data analysis.

[2] = tested on: CL1-5 cells; test: Transwell migration assay, CL1-5 cells pretreated with peptide; format: cell-based, human; conditions: 12 hours; for cell number: control approximately 105;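 for migration index: index equals control cell count divided by treated cell count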
Experimental: CL1-5 cells, an aggressively metastatic cell line derived from a human adenocarcinoma, were cultured in RPMI 1640 media with 10% FBS, 37° C. at 95% […]/5% CO2 until ready for use. Transwell plates (24-well, 8-um pore size; Costar, Cambridge, Mass., USA) were used to conduct the migration assay. The lower chambers of the Transwell plates were filled with 600 μl of basal media containing 10% FBS. The cells (1×10^5) were pretreated with 50 or 100 μM of the indicated test peptide for 30 min, and then suspended in 100 μl of basal media containing 1% BSA and added to the upper chamber, and the cells then were incubated at 37° C. for 12 hr. The cells on the upper surface of the filters were removed using cotton swabs, and the cells that migrated to the lower surface of the filters were washed, fixed, and stained with hematoxylin and counted under the microscope. The percent change in migration was determined by counting the number of cells that migrated to the lower surface of the filters. At least 3 separate microscopic fields were counted per membrane (n=4).
Primary CL1-5 cells originated from human adenocarcinoma lung cancer Transwell plates with 24-wells, 8-μ pore size (Costar, Cambridge, Mass., USA) were used to conduct the migration assay. The lower chambers of the transwell plates were filled with 600 μL of basal media containing 10% FBS. The cells (1-2×10^5) were suspended in 100 μL of basal media containing 1% BSA. The test peptide at desired concentration was added to the upper chamber directly or after preincubation with cancer cells. The plates were then incubated at 37° C. for 12 hours. The cells on the upper surface of the filters were removed using cotton swabs. The cells that migrated to the lower surface of the filters were washed, fixed, and stained with hematoxylin and counted under the microscope. At least five separate microscopic fields are counted per membrane (n=3). The percent change in migration was determined by counting the number of cells that migrated to the lower surface of the filters.
The count means the actual number of cells which migrated to the lower chamber and counted by a light microscope at 40× magnification, presented as the mean number of cells in 10 randomly chosen fields for each treatment.
The “index” was calculated by dividing the number of cells that migrated in the presence of peptides by the number of cells that migrated randomly (control group). […]. This calculation can reflect the extent that the migration of cells was blocked by 30 minute pretreatment with MANS-related peptides.

[3] = tested on: PC-9 cells; test: Orthotopic lung injection xenograph model, PC-9 cells in nude mice; format: in vivo; conditions: 50 nmoles i.p. once every three days, 25 days; for No. of Metastatic Lung Tumors Mean ± SE (L't): left lung; for No. of Metastatic Lung Tumors Mean ± SE (R't): right lung; for Tumor Size (mm) Mean ± SE: tumor at site of injection, cells pretreated 100 μM 4 hours
Experimental: The metastatic activity of cancer cells in vivo after treatment with MANS peptide or BIO-11006 was assessed in the orthotopic lung injection xenograph model. After pretreatment with either PBS, or PBS+MANS, BIO-11006 (SEQ ID NO: 106), or the control RNS peptide at 100 μM for 4 hours, PC-9 cells were injected into the left lobe of the lung of nude mice. Seven days later, these mice were given systemic treatment with either PBS only (Con), RNS (additional control peptide), MANS or BIO-11006 at 50 nmoles per intraperitoneal injection once every three days. At 25 days (6 injections) post-seeding of these tumor cells, mice were sacrificed and the number of metastasized tumor nodules in the contralateral lung and other organs was counted.

[4] = tested on: A549 cells; test: Anti-metastatic efficacy in SCID mice given A549 cells via the tail vein; format: in vivo; conditions: Day 53; for No. of metastatic nodules in lungs Mean ± SEM: aerosol 100 μM every other day for 7 weeks
Experimental: Female NOD.CB17-Prkdc^scid/NCrHsd, Mus musculus mice (Harlan, The Netherlands), housed in individually ventilated cages, were randomized into six groups of eight mice each. A549 cells (2.5×10^6) were injected into the mice via the tail vein. The control group received aerosolized vehicle PBS; while the groups 2 and 3 received the aerosolized test compound BIO-11006 either from −1 day before the cancer cells injection (group 2) or from +3 days after the cancer cell injection (group 3) on every other day for 7 weeks via nebulizer (Aeroneb Lab). Groups 4 and 5 received the aerosolized test compound MANS peptide either from −1 day before the cancer cell line injection (group 4) or from +3 days after the cell line injection (group 5) on every other day for 7 weeks via a nebulizer (Aeroneb Lab). For aerosol delivery, solution of each test compound (100 μM) was prepared in PBS, pH 7.0. For each treatment, 5 mL of test compound solution was aerosolized over 30 minutes into a chamber containing four mice at a time. The mice were monitored for body weight every other day for 7 weeks.
One group of mice (n=7) served as normal control. These were untreated naïve mice used to monitor the health status of mice during the study period. All animals from all groups were sacrificed on Day 53. FIG. 15 compares number of metastatic nodules in lungs after respective administration of BIO-11006 and MANS peptide on Day 53 following A549 cell injection. […] There were few focal tumor nodules in ⅞ of mice treated with BIO-11006 peptide starting at either Day −1 or Day +3 relative to A549 cell injection.

[5] = CL1-5, 50 μmolar, FIG. 8A, control=1, higher value signifies less migration
[6] = CL1-5, 100 μmolar, FIG. 8B, control=1, higher value signifies less migration
[7] = CL1-5, pretreatment at 50 μmolar, FIG. 7A
[8] = CL1-5, pretreatment at 100 μmolar, FIG. 7B
[9] = CL1-5, 50 μmolar pretreatment, FIG. 9
[10] = CL1-5, 50 μmolar pretreatment, FIG. 9, control=1.0
[11] = CL1-5, 100 μmolar pretreatment, FIG. 10
[12] = CL1-5, 100 μmolar pretreatment, FIG. 10, control=1.0

| Substance | cell numbers in comparison to control, RNS peptide and MANS peptide [1] | migration index numbers relative to control and to RNS peptide [1] | migrated cell numbers relative to control and to RNS peptide [1] | migration index [2, 5] | migration index [2, 6] | migrated cell numbers [2, 7] | migrated cell numbers [2, 8] | Metastases (affected mice/total mice) Diaphragm [3] | Metastases (affected mice/total mice) Heart [3] | Metastases (affected mice/total mice) Intestines [3] | Metastases (affected mice/total mice) Spleen [3] | No. of Metastatic Lung Tumors Mean ± SE (L't) [3] | No. of Metastatic Lung Tumors Mean ± SE (R't) [3] | Tumor Size (mm) Mean ± SE [3] [mm] | cell number [2, 9] | migration index [2, 10] | cell number [2, 11] | migration index [2, 12] | further results |
| --- | --- | --- | --- | --- | --- | --- | --- | --- | --- | --- | --- | --- | --- | --- | --- | --- | --- | --- | --- |
| N-myristoyl-GAQFSKTAAK-NH2 (Myristoyl-GAQFSKTAAK-NH2; SMILES CCCCCCCCCCCCCC(=O)NCC(=O)N[C@@H](C)C(=O)N[C@@H](CCC(N)=O)C(=O)N[C@@H](Cc1ccccc1)C(=O)N[C@@H](CO)C(=O)N[C@@H](CCCCN)C(=O)N[C@H](C(=O)N[C@@H](C)C(=O)N[C@@H](C)C(=O)N[C@@H](CCCCN)C(N)=O)[C@@H](C)O) [BIO-11002] | significantly reduced cell numbers | increased migration index numbers | decreased migrated cell numbers | approximately 2.7 | approximately 3.8 | approximately 50 | approximately 25 |  |  |  |  |  |  |  |  |  |  |  |  |
| N-myristoyl-GAQFSKTAAKGEAAAERPGEAAVA (Myristoyl-GAQFSKTAAKGEAAAERPGEAAVA; listed as Homo sapiens) [MANS peptide] |  | increased migration index numbers | decreased migrated cell numbers | approximately 2.5 | approximately 4.3 | approximately 40 | approximately 20 | 0/4 | 0/4 | 0/4 | 0/4 | 0; 0 | 0; 0 | 1.48 ± 0.54 | approximately 45 | approximately 2.5 | approximately 35 | approximately 3.5 | animals with few focal tumor nodules ([4]; +3 Day treatment group): Few focal tumor nodules in 7/8; distant metastasis ([4]; +3 Day treatment group): No distant metastasis; No. of metastatic nodules in lungs Mean ± SEM ([4]; +3 Day treatment group): 13 ± 4; animals with few focal tumor nodules ([4]; −1 Day treatment group): Few focal tumor nodules in 4/8; distant metastasis ([4]; −1 Day treatment group): No distant metastasis; No. of metastatic nodules in lungs Mean ± SEM ([4]; −1 Day treatment group): 22 ± 7 |
| N-acetyl-GAQFSKTAA (Ac-GAQFSKTAA; listed as Homo sapiens) [BIO-10901] |  | increased migration index numbers | decreased migrated cell numbers | approximately 1.75 | approximately 2.7 | approximately 60 | approximately 35 |  |  |  |  |  |  |  |  |  |  |  |  |
| GTAPAAEGAGAEVKRASAEAKQAF (Myristoyl-GTAPAAEGAGAEVKRASAEAKQAF) [RNS peptide, reference compound] |  |  |  | approximately 1.1 | approximately 1 | approximately 95 | approximately 90 | 3/4 | 3/4 | 1/4 | 2/4 | 1.00 ± 0.40; | 5.75 ± 2.01 | 1.72 ± 0.41 | approximately 90 | approximately 1.3 | approximately 95 | approximately 1.2 |  |
| N-myristoyl-GAQFSKTAAK (Myristoyl-GAQFSKTAAK; listed as Homo sapiens) [BIO-11000] |  | increased migration index numbers | decreased migrated cell numbers |  |  |  |  |  |  |  |  |  |  |  | approximately 70 | approximately 1.5 | approximately 50 | approximately 2.3 |  |
| N-myristoyl-AKGE (Myristoyl-AKGE; listed as Homo sapiens) [BIO-91200] | significantly reduced cell numbers | increased migration index numbers | decreased migrated cell numbers | approximately 1.7 | approximately 2.4 | approximately 65 | approximately 40 |  |  |  |  |  |  |  |  |  | approximately 55 | approximately 2.1 |  |

Source: patent publication US11466054B2, “Inhibitors of metastasis” (BIOMARCK PHARMACEUTICALS LTD., priority 2013, dated 2022)
